Tests used:
[1] = test system: CAR-induced swelling and thermal hyperalgesia; assay: Anti-hyperalgesic effect in animals (carrageenan injected into rat knee joint; swelling, Hargreaves test); format: in vivo; conditions: intra-articular administration 30 minutes before CAR, TAC 10 μg/joint
Method: In order to induce an inflammation reaction, a carrageenan solution (CAR, 1%, 50 μl) was injected intra-articularly on one side into a rat knee joint. The uninjected side was used for control purposes. Six animals per group were used. The […] was determined by means of a micrometer screw (medial-lateral on the knee joint), and the thermal hyperalgesia was determined by means of a directed infrared light source by the Hargreaves method (Hargreaves et al., 1988) on the sole of the foot. Since the site of inflammation (knee joint) is different from the site of measurement (paw sole), use is made here of the term secondary thermal hyperalgesia, the mechanism of which is of importance for the discovery of effective analgesics.
Experimental description of thermal hyperalgesia (Hargreaves test): the experimental animal is placed in a plastic chamber on a quartz sheet. Before testing, the experimental animal is firstly given about 5-15 minutes time to familiarise itself with the environment. […] Light reflected by the paw is recorded as long as the experimental animal sits still. Withdrawal of the paw interrupts this reflection, after which the infrared light source is switched off and the time from switching on to switching off is recorded. […]

[2] = target: T1, His-tagged human recombinant DDR-2 kinase domain (His-TEV-DDR2 467-855 aa) (Homo sapiens, UniProt Q16832); assay: Autophosphorylation assay for biochemical activity testing of DDR2 (HTRF); conditions: 4 nM DDR2 kinase domain, 150 μM ATP, 150 min at 22° C.
T1 construct: His-TEV-DDR2 467-855 aa
T1 sequence (Q16832 467-855): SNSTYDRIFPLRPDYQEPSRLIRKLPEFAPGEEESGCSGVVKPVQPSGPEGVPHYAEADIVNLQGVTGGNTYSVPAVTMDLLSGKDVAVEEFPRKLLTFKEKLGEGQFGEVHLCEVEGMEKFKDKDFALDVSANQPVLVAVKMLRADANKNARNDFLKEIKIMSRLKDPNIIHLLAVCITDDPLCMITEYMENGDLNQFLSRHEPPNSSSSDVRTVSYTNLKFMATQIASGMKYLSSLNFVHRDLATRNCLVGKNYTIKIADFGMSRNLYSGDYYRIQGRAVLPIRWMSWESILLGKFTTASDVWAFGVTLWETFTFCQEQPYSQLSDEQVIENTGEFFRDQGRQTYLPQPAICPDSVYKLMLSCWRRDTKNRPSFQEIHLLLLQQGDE
How it was run: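 Phospho-tyrosine was detected by HTRF between XL665 anti-6His and cryptate anti-phosphotyrosine PT66 antibodies, using the emission ratio. Inhibition was referenced to the inhibitor-free reaction.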

[3] = test system: proMMP13 production by SW1353 cells; assay: Production of MMP13 (proMMP13 ELISA) by SW1353 cells upon stimulation with collagen type II; format: cell-based; conditions: Homo sapiens, SW1353, 72 h, read-out: IC50 [pro-MMP13]
Method: The binding of Collagen type II to the DDR2 receptor of the SW1353 cells initiate a signalling cascade resulting in the increase of MMP13 expression. MMP13 is released in the culture medium in its pro-form, the proMMP13 which can be measured with an ELISA.
DDR2 inhibitors are evaluated for their ability to block this signalling cascade and therefore proMMP13 production upon collagen stimulation.
SW1353 cells (ATCC, HTB-94), conserved in liquid nitrogen, are thawed and cultivated at 1.6.10^6 cells in a T75 in RPMI1640 supplemented with 2 mM Glutamin, 1 mM Na-Pyruvate, 10% FCS, at 37° C., 5% CO2 for three days. SW1353 cells are then harvested with trypsin/EDTA and resuspended in RPMI1640 supplemented with 2 mM Glutamin, 1 mM Na-Pyruvate, 25 mM HEPES and 0.5% FCS (assay medium) and inoculated in a 96 well plate at 30 000 cells/well in 100 μL of the assay medium and further incubated 24 hours at 37°, 5% CO2 to enable cell adhesion. For stimulation of the DDR2 receptor, 50 μL of a collagen type II solution 160 μg/mL (final concentration in the well is 40 μg/mL) will be added in each well as well as 50 μL of the different dilutions of the inhibitors (MSCs) from 0.003 μM to 10 μM (final concentration in the plate). Each condition is performed in four-plicates. After three additional days of culture, the supernatant will be harvested for proMMP13 measurement.
The Different Controls Present on Each Plate are Composed of Assay Medium with: Positive control (with the reference compound): 40 μg/mL Collagen type II, 0.03 μM Dasatinib (reference compound) in 0.1% DMSO Negative control (no inhibition): 40 μg/mL Collagen type II and 0.1% DMSO Medium control (no stimulation): 0.005% Acetic acid and 0.1% DMSO All wells contains 0.1% DMSO and 0.005% acetic acid.
The solutions needed are: • Collagen type II is diluted at 2 mg/mL in 0.25% acetic acid. This stock solution can be stored at 4° C. for a week and is diluted 1/12.5 in the assay medium (to obtain 160 μg/mL in 0.02% acetic acid) before being used in the assay. • MSCs from 0.012 to 40 μM in assay medium with 0.4% DMSO (they are then further diluted ¼ in the assay plate) • Dasatinib 0.12 μM in assay medium with 0.4% DMSO (it is then further diluted ¼ in the assay plate) • Acetic acid 0.02% in assay medium (control).
The harvested supernatants are either directly used or stored at −20° C. until use. ProMMP13 is measured with a commercial ELISA kit, according the recommendation of the manufacturer (see Annex). Briefly, 50 μL of each samples are used undiluted and the standard curve is realised in the assay medium. At the end of the assay the ELISA plate is read on a Paradigm MTP-Reader (Beckman Coulter) at 540 (reference wavelength) and 450 nm. All the absorbance values obtained at 450 nm are corrected with the absorbance at 540 nm and a ‘Four Parameter Fit’ is used to establish the standard curve. From the standard curve the concentrations of proMMP13 in all the samples are calculated. All the calculations are realised by the Paradigm software.
The data reported in the database are the % effect of the compounds at the two highest concentrations (10 and 3 μM) as well as the IC50.
% effect at the two highest concentrations is calculated according to the formula: […]
The IC50s are calculated with the software Graph Pad Prism (see tables in Example 1).

C[C@]12C=CC(=O)C=C1CC[C@H]1[C@@H]3C[C@@H](O)[C@](O)(C(=O)CO)[C@@]3(C)C[C@H](O)[C@@]12F [TAC, Triamcinolone]
CAR-induced swelling [1]: capable of reducing the CAR-induced swelling

CNC(=O)c1cc(Oc2ccc(CNC(=O)Nc3cc(Cl)cnc3Cl)cc2)ccn1 [compound 8]
IC50 [2]: 0.13 µM | IC50 [3]: 0.278 µM
